The results in this text go back to US12653191B2, “Active compound combinations” (Bayer Aktiengesellschaft, priority 2020, dated 2026).

Data set [1] relates to Ustilago segetum var. avenae. In words: in vitro-Test with fungal microorganisms, Method A (tables I1-I5). The data set is classed as cell-based. The note with it: alone, read-out: Efficacy %. An outline of the steps:
(§1)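 Methanol/emulsifier compound solution evaporated in well; liquid potato dextrose medium + spore or mycelium suspension added; 20° C, 85% RH, 3-5 d; photometric read 620 nm; % efficacy vs untreated.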

The next data set has as its system Fusarium culmorum. In words: in vitro-Test with fungal microorganisms, Method A (tables G1-G4). The data set is classed as cell-based. The note with it: alone. An outline of the steps: as §1
The next data set concerns Cercospora beticola. In words: in vitro-Test with fungal microorganisms, Method A (tables C1-C10). To be noted: Cercospora beticola, read-out: Efficacy %. The data set is classed as cell-based. A digest of the protocol:
as §1

A short description of data set [2]: Log P by HPLC on reversed phase columns (LC-UV), method [a]: acidic range, 0.1% formic acid in water / acetonitrile. The note with it: method [a]: HPLC on reversed phase column, acidic range, 0.1% formic acid in water / acetonitrile. The data set is classed as physicochemical.
Procedure: Measurement of Log P Values
Measurement of Log P values as provided herein was performed according to EEC directive 79/831 Annex V.A8 by HPLC (High Performance Liquid Chromatography) on reversed phase columns with the following methods: • ^[a]
If more than one Log P value is available within the same method, all the values are given and separated by “+”.
A further data set relates to Diaporthe citri. In words: in vitro-Test with fungal microorganisms, Method A (tables F1-F11). The data set is classed as cell-based. To be noted: applied alone. An outline of the steps:
as §1

Another data set concerns Alternaria alternate. In words: in vitro-Test with fungal microorganisms, Method A (tables A1-A12). The format is cell-based, Alternaria alternata. To be noted: applied alone. An outline of the steps: as §1

The term chromatographic logP denotes lipophilicity estimated from chromatographic retention. Read a low chromatographic logP as a more hydrophilic compound. With `Cc1ccc(CC2CON=C(c3cc(C)nnc3Oc3cccc(Cl)c3F)N2)c(Cl)c1` (racemic) [Compound I-302, rac-3-[3-(3-chloro-2-fluorophenoxy)-6-methylpyridazin-4-yl]-5-[(2-chloro-4-methylphenyl)methyl]-5,6-dihydro-4H-1,2,4-oxadiazine], the inhibition of growth at 0.0008 ppm in data set [1] (0.0008 ppm) stood at 0%; in the data set on Fusarium culmorum (Fusarium culmorum, 0.0008 ppm, read-out: Efficacy), 7%; with Cercospora beticola (0.0008 ppm), 0%; in the data set on Diaporthe citri (Diaporthe citri, 0.0008 ppm, read-out: Efficacy), 0%; in the data set with Alternaria alternate (Alternaria, 0.0008 ppm, read-out: Efficacy %) it was 9%. Besides, the inhibition of growth at 0.004 ppm is 0% in data set [1] (0.004 ppm); 4% with Fusarium culmorum (Fusarium culmorum, 0.004 ppm, read-out: Efficacy); 0% with Cercospora beticola (0.004 ppm); 1% with Diaporthe citri (Diaporthe citri, 0.004 ppm, read-out: Efficacy); 6% with Alternaria alternate (Alternaria, 0.004 ppm, read-out: Efficacy %). Also, the inhibition of growth at 0.02 ppm in data set [1] (0.02 ppm) was found to be 0%; in the data set on Fusarium culmorum (Fusarium culmorum, 0.02 ppm, read-out: Efficacy), 2%; with Cercospora beticola (0.02 ppm) it was 31%; with Diaporthe citri (Diaporthe citri, 0.02 ppm, read-out: Efficacy) it was 0%; in the data set with Alternaria alternate (Alternaria, 0.02 ppm, read-out: Efficacy %) it was 36%. Also, the inhibition of growth at 0.1 ppm was determined as 0% in data set [1] (0.1 ppm); 0% in the data set on Fusarium culmorum (Fusarium culmorum, 0.1 ppm, read-out: Efficacy); 35% with Cercospora beticola (0.1 ppm); 20% in the data set on Diaporthe citri (Diaporthe citri, 0.1 ppm, read-out: Efficacy); 100% in the data set with Alternaria alternate (Alternaria, 0.1 ppm, read-out: Efficacy %). Further, the Efficacy in the data set on Fusarium culmorum (0.004 ppm) is recorded as 4%; in the data set with Diaporthe citri (0.004 ppm), 1%. In addition, in data set [2], the chromatographic logP is 3.94. The Efficacy % in the data set with Alternaria alternate (0.004 ppm) is listed as 6%.
